Key:
[1] = test system: HUVEC cells; assay: Transwell migration (invasion) assay; assay type: cell-based, human; conditions: 40 nM GA, 4 hours
Description: The transwell (Corning Incorporated, NY, USA) were coated with 0.1% gelatin (Sigma) for 30 minutes at 37° C. After washed the transwells three times with 1×PBS, the bottom chambers (600 μl) were filled with ECGM medium with 20% FBS supplemented with 4 ng/ml VEGF and the top chambers were seeded with 100 μl ECGM medium and HUVEC cells (4×10^4 cell/well). The top and bottom chambers contained the same series of concentrations of gambogic acid (GA). HUVEC cells were allowed to migrate for 4 hours at 37° C., 5% CO2. After the incubation, cells on the top surface of the membrane (nonmigrated) were scraped with a cotton swab. Cells on the bottom side of the membrane (migrated cells) were fixed with 4% paraformaldehyde for 20 minutes and washed three times with 1×PBS. The cells were stained by hematoxylin and eosin (hereinafter, H&E) staining and then destained with 1×PBS (pH 7.4). The membranes were left to air dry at room temperature for 30 minutes. Images were taken using an OLYMPUS inverted microscope and migrated cells were quantified by manual counting using high power fields (HPF, 200×). The invaded cells were calculated and percent inhibition was expressed using untreated wells as 100% (t-test, p<0.01).

[2] = test system: c-Src; assay: c-Src phosphorylation in HUVEC cells (immunoprecipitation, Western blotting); assay type: cell-based, human; conditions: HUVEC cells with or without VEGF, GA 1-40 nM, 5 minutes
Description: (§1) After starvation in ECGM medium without serum overnight, HUVEC cells were washed with 1×PBS twice, followed with incubation in M199 medium. HUVEC cells were then treated with 1 nM of GA and/or 4 nM of VEGF for 5 minutes, then subjected to immunoprecipitation using anti-VEGFR2 antibody. Anti-phosphotyrosine antibody was used for the detection of phosphorylation of the tyrosine residue of VEGFR2. […] Reaction cocktail containing 100 ng of active VEGFR2 was incubated with different concentrations of GA for 5 minutes at room temperature. Substrate peptide cocktail was added to the pre-incubated reaction cocktail/GA compound. After incubation at room temperature for 30 minutes, stop buffer was added to halt the reaction. 25 μl of each reaction was then transferred with 75 μl dH2O per well into a 96-well streptavidin coated plate and incubated at room temperature for 60 minutes. […] The stop solution was added and the plate was detected at 405 nm. […]
HUVEC cells pretreated with or without 4 nM VEGF for 5 min were treated with or without different concentrations of GA for another 5 minutes. […] Anti-cleaved caspase 3 antibody (Santa Cruz Biotech) was used for detecting cleaved caspase 3 and polyADP ribose polymerase (PARP) cleavage was detected by an anti-PARP p85 fragment (Promega) in apoptosis assays.

[3] = molecular target: T1, VEGF Receptor 2 (Homo sapiens, UniProt P35968); assay: VEGF Receptor 2 inhibition assay (HTScan VEGF receptor 2 kinase assay kit); assay type: biochemical; conditions: 100 ng active VEGFR2
T1 construct: purchased Cell Signaling Technology
Description: as §1
12.5 μl of the 4× reaction cocktail containing 100 ng VEGF Receptor 2 (supplied from the HTScan® VEGF receptor 2 kinase assay kit, Cell Signaling Technology, USA) was incubated with 12.5 μl/tube of GA for 5 minutes at room temperature. […] The plate was then detected at 405 nm with VERSAMAX microplate reader (Molecular Devices). […]

T1 sequence (P35968 789-1356 limits assumed): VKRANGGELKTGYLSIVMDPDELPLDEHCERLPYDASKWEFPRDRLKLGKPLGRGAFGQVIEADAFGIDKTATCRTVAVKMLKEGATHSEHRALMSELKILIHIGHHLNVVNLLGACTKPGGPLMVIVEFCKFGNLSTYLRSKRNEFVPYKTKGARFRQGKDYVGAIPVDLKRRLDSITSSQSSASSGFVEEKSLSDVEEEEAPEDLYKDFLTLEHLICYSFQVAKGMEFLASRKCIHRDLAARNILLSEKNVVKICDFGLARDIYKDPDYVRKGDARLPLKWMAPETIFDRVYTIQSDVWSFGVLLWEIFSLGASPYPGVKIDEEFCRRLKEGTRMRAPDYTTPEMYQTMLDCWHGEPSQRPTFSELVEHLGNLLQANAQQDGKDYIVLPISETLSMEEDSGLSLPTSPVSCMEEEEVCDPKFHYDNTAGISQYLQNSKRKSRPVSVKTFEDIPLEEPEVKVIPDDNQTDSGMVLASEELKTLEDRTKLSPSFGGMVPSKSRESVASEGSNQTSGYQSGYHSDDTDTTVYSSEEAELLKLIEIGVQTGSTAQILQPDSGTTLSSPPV

CC(C)=CCC[C@]1(C)C=Cc2c(O)c3c(c(CC=C(C)C)c2O1)O[C@]12C(=C[C@@H]4C[C@H]1C(C)(C)O[C@@]2(C/C=C(/C)C(=O)O)C4=O)C3=O [GA, gambogic acid]
Invasion of HUVEC cells (transwell) [1]: inhibit almost all invasion activities
Phosphorylation and activation of c-Src [2]: significantly inhibited the phosphorylation and activation
IC50 [3]: 0.012 nM
